Laboratory results published in ChEMBL document CHEMBL4340535, “Antitumor effect of chiral organotelluranes elicited in a murine melanoma model” (Bioorg Med Chem, 2019).
Calls of active or inactive are those of the source. The calls are words filed in the database; no cut-off is given here.

Columns and labels:
HT-144 [1] = assay: Induction of morphological changes in human HT144 cells assessed as cell rounding at 10 uM incubated for 24 hrs by tubulin-Cy2 and TOPRO-3 staining based confocal microscopic method; assay type: functional
HT-144 [2] = assay: Induction of morphological changes in human HT144 cells assessed as membrane blebbing at 10 uM incubated for 24 hrs by tubulin-Cy2 and TOPRO-3 staining based confocal microscopic method; assay type: functional, cell-based
[3] = molecular target: Cathepsin B (Homo sapiens) (UniProt P07858); assay: Inhibition of human recombinant cathepsin B assessed as second-order inhibition rate constant using Z-RR-MCA as substrate incubated for 10 mins by spectrofluorimetric method
[4] = molecular target: Procathepsin L (Homo sapiens) (UniProt P07711); assay: Inhibition of human recombinant cathepsin L expressed in Pichia pastoris assessed as second-order inhibition rate constant using Z-FR-MCA as substrate incubated for 10 mins by spectrofluorimetric method
[5] = molecular target: Cathepsin S (Homo sapiens) (UniProt P25774); assay: Inhibition of human recombinant cathepsin S assessed as second-order inhibition rate constant using Z-FR-MCA as substrate incubated for 10 mins by spectrofluorimetric method
B16F10Nex2 [6] = assay: Cytotoxicity against mouse B16F10Nex2 cells assessed as reduction in cell viability incubated for 16 hrs by MTT assay; assay type: functional, cell-based; settings: for IC50: B16F10Nex2, 16 h
HUVEC [7] = assay: Cytotoxicity against human HUVEC cells assessed as reduction in cell viability incubated for 16 hrs by MTT assay; assay type: cell-based; settings: for IC50: Homo sapiens, HUVEC; for Activity: human, huvec
NIH3T3 = assay: Cytotoxicity against mouse 3T3 cells assessed as reduction in cell viability incubated for 16 hrs by MTT assay; assay type: cell-based; settings: for IC50: Mus musculus, NIH3T3, 16 h; for Activity: mouse, nih3t3, 16 h
SK-MEL-25 = assay: Cytotoxicity against human SK-MEL-25 cells assessed as reduction in cell viability incubated for 16 hrs by MTT assay; assay type: functional, cell-based; settings: for IC50: SK-MEL-25, 16 h
SK-MEL-28 = assay: Cytotoxicity against human SK-MEL-28 cells assessed as reduction in cell viability incubated for 16 hrs by MTT assay; assay type: functional, cell-based; settings: for IC50: SK-MEL-28, 16 h
A2058 = assay: Cytotoxicity against human A2058 cells assessed as reduction in cell viability incubated for 16 hrs by MTT assay; assay type: functional, cell-based; settings: for IC50: A2058, 16 h
MeWo = assay: Cytotoxicity against human MeWo cells assessed as reduction in cell viability incubated for 16 hrs by MTT assay; assay type: functional, cell-based
HeLa = assay: Cytotoxicity against human HeLa cells assessed as reduction in cell viability incubated for 16 hrs by MTT assay; assay type: functional, cell-based
HT-144 [8] = assay: Cytotoxicity against human HT144 cells assessed as reduction in cell viability incubated for 16 hrs by MTT assay; assay type: functional, cell-based
B16F10Nex2 [9] = assay: Antitumor activity against mouse B16F10Nex2 cells transplanted in C57BL/6 mouse assessed as reduction in lungs superficial nodules at 20 uM, ip administered every other day for 12 days and measured 21 days post transplantation relative to control; assay type: functional
HUVEC [10] = assay: Anti-angiogenic activity in human HUVEC cells assessed as inhibition in pro-angiogenic structures formation in presence of fetal calf serum at 0.5 uM incubated for 18 hrs by inverted light microscopy based matrigel assay; assay type: functional
B16F10Nex2 [11] = assay: Inhibition of cell adhesion of mouse B16F10Nex2 cells assessed as reduction in cell adhesion to type 1 collagen at 2 uM incubated for 3 hrs by toluidine blue staining based assay; assay type: functional
B16F10Nex2 [12] = assay: Inhibition of cell adhesion of mouse B16F10Nex2 cells assessed as reduction in cell adhesion to type 4 collagen at 2 uM incubated for 3 hrs by toluidine blue staining based assay; assay type: functional
B16F10Nex2 [13] = assay: Inhibition of cell adhesion of mouse B16F10Nex2 cells assessed as reduction in cell adhesion to fibronectin at 2 uM incubated for 3 hrs by toluidine blue staining based assay; assay type: functional
B16F10Nex2 [14] = assay: Inhibition of cell adhesion of mouse B16F10Nex2 cells assessed as reduction in cell adhesion to laminin at 2 uM incubated for 3 hrs by toluidine blue staining based assay; assay type: functional
B16F10Nex2 [15] = assay: Antimigratory activity against mouse B16F10Nex2 cells assessed as reduction in cell migration towards wound area at 20 uM measured every hour for 24 hrs by scratch wound-healing assay relative to control; assay type: functional; settings: B16F10Nex2, 24 h
HUVEC [16] = assay: Antimigratory activity against human HUVEC cells assessed as reduction in cell migration towards wound area at 20 uM measured every hour for 24 hrs by scratch wound-healing assay relative to control; assay type: functional
HUVEC [17] = assay: Anti-invasive activity in human HUVEC cells assessed as reduction in invasive potential at 20 uM incubated for 24 hrs by Giemsa staining based matrigel assay; assay type: functional, cell-based
B16F10Nex2 [18] = assay: Anti-invasive activity in mouse B16F10Nex2 cells assessed as reduction in invasive potential at 20 uM incubated for 24 hrs by Giemsa staining based matrigel assay relative to control; assay type: functional; settings: B16F10Nex2, 24 h
B16F10Nex2 [19] = assay: Induction of morphological changes in mouse B16F10Nex2 cells at 10 uM incubated for 24 hrs by tubulin-Cy2 and TOPRO-3 staining based confocal microscopic method; assay type: functional, cell-based
HT-144 [20] = assay: Induction of morphological changes in human HT144 cells at 10 uM incubated for 24 hrs by tubulin-Cy2 and TOPRO-3 staining based confocal microscopic method; assay type: functional, cell-based
B16F10Nex2 [21] = assay: Induction of morphological changes in mouse B16F10Nex2 cells assessed as cell rounding at 10 uM incubated for 24 hrs by tubulin-Cy2 and TOPRO-3 staining based confocal microscopic method; assay type: functional
B16F10Nex2 [22] = assay: Induction of morphological changes in mouse B16F10Nex2 cells assessed as retraction of cell protrusions at 10 uM incubated for 24 hrs by tubulin-Cy2 and TOPRO-3 staining based confocal microscopic method; assay type: functional
B16F10Nex2 [23] = assay: Induction of morphological changes in mouse B16F10Nex2 cells assessed as depolymerisation of F-actin at 10 uM incubated for 24 hrs by tubulin-Cy2 and TOPRO-3 staining based confocal microscopic method; assay type: functional, cell-based
B16F10Nex2 [24] = assay: Induction of morphological changes in mouse B16F10Nex2 cells assessed as membrane blebbing at 10 uM incubated for 24 hrs by tubulin-Cy2 and TOPRO-3 staining based confocal microscopic method; assay type: functional, cell-based
HT-144 [25] = assay: Induction of morphological changes in human HT144 cells assessed as retraction of cell protrusions at 10 uM incubated for 24 hrs by tubulin-Cy2 and TOPRO-3 staining based confocal microscopic method; assay type: functional
HT-144 [26] = assay: Induction of morphological changes in human HT144 cells assessed as depolymerisation of F-actin at 10 uM incubated for 24 hrs by tubulin-Cy2 and TOPRO-3 staining based confocal microscopic method; assay type: functional, cell-based
HT-144 [27] = assay: (§1) Induction of morphological changes in human HT144 cells assessed as reduction in stress fibers formation by measuring cell rounding at 30 uM incubated for 24 hrs by phalloidin-TRITC, tubulin-Cy2 and TOPRO-3 staining based confocal microscopic method; assay type: functional
HT-144 [28] = assay: as §1, with “remaining cortical actin in close association with the microtubule network” for “cell rounding”; assay type: functional, cell-based
B16F10Nex2 [29] = assay: Antitumor activity against mouse B16F10Nex2 cells transplanted in C57BL/6 mouse assessed as reduction in lung metastases at 20 uM, ip administered for 5 non-consecutive days and measured 21 days post transplantation relative to control; assay type: functional; set-up: scale not given: the % may be the effect or the level left
HT-144 [30] = assay: Induction of morphological changes in human HT144 cells assessed as cell rounding with remaining cortical actin in close association with the microtubule network at 30 uM incubated for 24 hrs by phalloidin-TRITC, tubulin-Cy2 and TOPRO-3 staining based confocal microscopic method; assay type: functional
HUVEC [31] = assay: Anti-angiogenic activity in human HUVEC cells assessed as inhibition in pro-angiogenic structures formation in presence of fetal calf serum at 0.062 uM incubated for 18 hrs by inverted light microscopy based matrigel assay; assay type: functional
HUVEC [32] = assay: Anti-angiogenic activity in human HUVEC cells assessed as inhibition in pro-angiogenic structures formation in presence of fetal calf serum at 5 uM incubated for 18 hrs by inverted light microscopy based matrigel assay; assay type: functional

Procathepsin L (Homo sapiens), sequence (P07711 114-333 limits assumed): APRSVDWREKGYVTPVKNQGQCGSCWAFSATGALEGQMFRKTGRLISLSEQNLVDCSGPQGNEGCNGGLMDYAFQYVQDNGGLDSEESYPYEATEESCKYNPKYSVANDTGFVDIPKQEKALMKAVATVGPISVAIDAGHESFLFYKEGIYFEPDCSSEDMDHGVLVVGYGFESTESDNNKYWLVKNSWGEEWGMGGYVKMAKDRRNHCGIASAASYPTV
Cathepsin S (Homo sapiens), sequence (P25774 115-331 limits assumed): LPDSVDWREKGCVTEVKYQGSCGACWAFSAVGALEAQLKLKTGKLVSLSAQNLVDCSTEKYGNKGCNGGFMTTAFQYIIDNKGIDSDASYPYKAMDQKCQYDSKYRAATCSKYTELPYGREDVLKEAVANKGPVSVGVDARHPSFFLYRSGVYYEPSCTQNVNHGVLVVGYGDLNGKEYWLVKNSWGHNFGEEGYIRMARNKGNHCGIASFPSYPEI

CCCC[Te](Cl)(Cl)c1ccccc1[C@@H](C)OC
Activity (HT-144 [1]): Active | Activity (HT-144 [2]): Active | K [3]: 3700 M⁻¹ s⁻¹ | K [4]: 5500 M⁻¹ s⁻¹ | K [5]: 39000 M⁻¹ s⁻¹ | Activity (B16F10Nex2 [6]): Dose-dependent effect | IC50 (B16F10Nex2 [6]): 2.3 mM | IC50 (HUVEC [7]): 20.3 mM | Activity (HUVEC [7]): Dose-dependent effect | IC50 (NIH3T3): 11.5 mM | Activity (NIH3T3): Dose-dependent effect | Activity (SK-MEL-25): Dose-dependent effect | IC50 (SK-MEL-25): 18 mM | Activity (SK-MEL-28): Dose-dependent effect | IC50 (SK-MEL-28): 6.2 mM | Activity (A2058): Dose-dependent effect | IC50 (A2058): 5.5 mM | Activity (MeWo): Dose-dependent effect | IC50 (MeWo): 9.5 mM | Activity (HeLa): Dose-dependent effect | IC50 (HeLa): 2.3 mM | Activity (HT-144 [8]): Dose-dependent effect | fold change (FC) (B16F10Nex2 [9]): 2 | inhibition at 0.5 µM (HUVEC [10]): 45% | inhibition (B16F10Nex2 [11]): Active | inhibition (B16F10Nex2 [12]): Active | inhibition (B16F10Nex2 [13]): Active | inhibition (B16F10Nex2 [14]): Active | inhibition at 20 µM (B16F10Nex2 [15]): 80% | inhibition at 20 µM (HUVEC [16]): 33% | Activity (HUVEC [17]): Active | inhibition at 20 µM (B16F10Nex2 [18]): 80% | Activity (B16F10Nex2 [19]): Active | Activity (HT-144 [20]): Active | Activity (B16F10Nex2 [21]): Active | Activity (B16F10Nex2 [22]): Active | Activity (B16F10Nex2 [23]): Active | Activity (B16F10Nex2 [24]): Active | Activity (HT-144 [25]): Active | Activity (HT-144 [26]): Active | Activity (HT-144 [27]): Active | Activity (HT-144 [28]): Active | Activity (B16F10Nex2 [29]): 58% | Activity (HT-144 [30]): Active

CCCC[Te](Cl)(Cl)c1ccccc1[C@H](C)OC
Activity (HT-144 [1]): Active | Activity (HT-144 [2]): Active | K [3]: 7400 M⁻¹ s⁻¹ | K [4]: 8700 M⁻¹ s⁻¹ | K [5]: 600000 M⁻¹ s⁻¹ | Activity (B16F10Nex2 [6]): Dose-dependent effect | IC50 (B16F10Nex2 [6]): 0.9 mM | IC50 (HUVEC [7]): 2.8 mM | Activity (HUVEC [7]): Dose-dependent effect | IC50 (NIH3T3): 3.1 mM | Activity (NIH3T3): Dose-dependent effect | Activity (SK-MEL-25): Dose-dependent effect | IC50 (SK-MEL-25): 2.5 mM | Activity (SK-MEL-28): Dose-dependent effect | IC50 (SK-MEL-28): 3.1 mM | Activity (A2058): Dose-dependent effect | IC50 (A2058): 1.5 mM | Activity (MeWo): Dose-dependent effect | IC50 (MeWo): 3.2 mM | Activity (HeLa): Dose-dependent effect | IC50 (HeLa): 0.8 mM | Activity (HT-144 [8]): Dose-dependent effect | fold change (FC) (B16F10Nex2 [9]): 7 | inhibition at 0.062 µM (HUVEC [31]): 55% | inhibition (B16F10Nex2 [11]): Active | inhibition (B16F10Nex2 [12]): Active | inhibition (B16F10Nex2 [13]): Active | inhibition (B16F10Nex2 [14]): Active | inhibition at 20 µM (B16F10Nex2 [15]): 80% | Activity (HUVEC [17]): Active | inhibition at 20 µM (B16F10Nex2 [18]): 80% | Activity (B16F10Nex2 [19]): Active | Activity (HT-144 [20]): Active | Activity (B16F10Nex2 [21]): Active | Activity (B16F10Nex2 [22]): Active | Activity (B16F10Nex2 [23]): Active | Activity (B16F10Nex2 [24]): Active | Activity (HT-144 [25]): Active | Activity (HT-144 [26]): Active | Activity (HT-144 [27]): Active | Activity (HT-144 [28]): Active | Activity (B16F10Nex2 [29]): 85% | Activity (HT-144 [30]): Active

CC(C)C[C@H](NC(=O)[C@H]1O[C@@H]1C(=O)O)C(=O)NCCCCN=C(N)N [E-64]
inhibition at 5 µM (HUVEC [32]): 80%
